ChEMBL document CHEMBL1201862, “PubChem BioAssay data set” (2004)
Calls of active or inactive are those of the source.

Key:
[1] = target: Cytochrome P450 2C9 (Homo sapiens, UniProt P11712)
[2] = target: Peroxisome proliferator-activated receptor gamma/Nuclear receptor coactivator 3 (Homo sapiens, UniProt P37231); assay: TR-FRET dose response biochemical High Throughput Screening assay for agonists of the steroid receptor coactivator 3 (SRC-3) recruitment by the peroxisome proliferator-activated receptor gamma (PPAR gamma): non-selective agonists. [Related pubchem assays: 1301 (Confirmation screen.), 1048 (Primary screen.)]; type: functional
[3] = target: T1, Cytochrome P450 1A2 (Homo sapiens, UniProt P05177);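 further: PubChem cytochrome P450 panel assay, CYP1A2 panel member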
T1 sequence (P05177 whole entry): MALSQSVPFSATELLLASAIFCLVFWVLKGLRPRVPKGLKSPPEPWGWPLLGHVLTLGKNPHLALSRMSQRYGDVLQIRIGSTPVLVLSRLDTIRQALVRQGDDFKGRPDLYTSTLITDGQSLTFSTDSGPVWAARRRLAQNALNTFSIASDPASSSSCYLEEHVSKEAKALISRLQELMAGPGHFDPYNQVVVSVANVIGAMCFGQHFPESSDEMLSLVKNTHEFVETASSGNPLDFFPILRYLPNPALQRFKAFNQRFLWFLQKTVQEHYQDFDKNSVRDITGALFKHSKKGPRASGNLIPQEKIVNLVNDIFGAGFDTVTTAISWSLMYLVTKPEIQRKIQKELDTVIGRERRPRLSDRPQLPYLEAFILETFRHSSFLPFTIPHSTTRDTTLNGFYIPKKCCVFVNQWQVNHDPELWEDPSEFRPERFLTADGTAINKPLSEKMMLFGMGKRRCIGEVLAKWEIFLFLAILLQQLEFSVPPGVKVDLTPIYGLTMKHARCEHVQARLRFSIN

[4] = target: Peroxisome proliferator-activated receptor gamma/Nuclear receptor coactivator 2 (Homo sapiens, UniProt P37231); assay: (§1) TR-FRET dose response biochemical High Throughput Screening assay for agonists of the steroid receptor coactivator 2 (SRC-2) recruitment by the peroxisome proliferator-activated receptor gamma (PPAR gamma): non-selective agonists. [Related pubchem assays: 1297, 1032 ]; type: functional
[5] = target: Peroxisome proliferator-activated receptor gamma/Nuclear receptor coactivator 1 (Homo sapiens, UniProt P37231); assay: as §1, with “1 (SRC-1)” for “2 (SRC-2)”, “assays (depositor defined):AID1300, AID1808, AID504735, AID631]” for “assays: 1297, 1032 ]”; type: protein assay
Chain of Peroxisome proliferator-activated receptor gamma/Nuclear receptor coactivator 1 (P37231 whole entry): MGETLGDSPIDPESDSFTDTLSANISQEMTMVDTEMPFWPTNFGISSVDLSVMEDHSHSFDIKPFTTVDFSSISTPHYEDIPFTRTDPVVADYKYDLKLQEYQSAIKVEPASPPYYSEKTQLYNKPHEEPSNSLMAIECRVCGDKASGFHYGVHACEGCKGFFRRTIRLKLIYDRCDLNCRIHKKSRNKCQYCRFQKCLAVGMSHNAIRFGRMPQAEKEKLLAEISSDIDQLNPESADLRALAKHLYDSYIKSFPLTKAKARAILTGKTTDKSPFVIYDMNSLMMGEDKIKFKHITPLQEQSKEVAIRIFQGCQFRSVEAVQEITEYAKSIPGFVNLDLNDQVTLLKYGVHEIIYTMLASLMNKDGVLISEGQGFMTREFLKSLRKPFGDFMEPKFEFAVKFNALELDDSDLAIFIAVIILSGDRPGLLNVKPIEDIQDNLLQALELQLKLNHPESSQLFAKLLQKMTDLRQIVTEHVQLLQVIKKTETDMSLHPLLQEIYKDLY
Chain of Peroxisome proliferator-activated receptor gamma/Nuclear receptor coactivator 1 (Q15788 whole entry, further chain): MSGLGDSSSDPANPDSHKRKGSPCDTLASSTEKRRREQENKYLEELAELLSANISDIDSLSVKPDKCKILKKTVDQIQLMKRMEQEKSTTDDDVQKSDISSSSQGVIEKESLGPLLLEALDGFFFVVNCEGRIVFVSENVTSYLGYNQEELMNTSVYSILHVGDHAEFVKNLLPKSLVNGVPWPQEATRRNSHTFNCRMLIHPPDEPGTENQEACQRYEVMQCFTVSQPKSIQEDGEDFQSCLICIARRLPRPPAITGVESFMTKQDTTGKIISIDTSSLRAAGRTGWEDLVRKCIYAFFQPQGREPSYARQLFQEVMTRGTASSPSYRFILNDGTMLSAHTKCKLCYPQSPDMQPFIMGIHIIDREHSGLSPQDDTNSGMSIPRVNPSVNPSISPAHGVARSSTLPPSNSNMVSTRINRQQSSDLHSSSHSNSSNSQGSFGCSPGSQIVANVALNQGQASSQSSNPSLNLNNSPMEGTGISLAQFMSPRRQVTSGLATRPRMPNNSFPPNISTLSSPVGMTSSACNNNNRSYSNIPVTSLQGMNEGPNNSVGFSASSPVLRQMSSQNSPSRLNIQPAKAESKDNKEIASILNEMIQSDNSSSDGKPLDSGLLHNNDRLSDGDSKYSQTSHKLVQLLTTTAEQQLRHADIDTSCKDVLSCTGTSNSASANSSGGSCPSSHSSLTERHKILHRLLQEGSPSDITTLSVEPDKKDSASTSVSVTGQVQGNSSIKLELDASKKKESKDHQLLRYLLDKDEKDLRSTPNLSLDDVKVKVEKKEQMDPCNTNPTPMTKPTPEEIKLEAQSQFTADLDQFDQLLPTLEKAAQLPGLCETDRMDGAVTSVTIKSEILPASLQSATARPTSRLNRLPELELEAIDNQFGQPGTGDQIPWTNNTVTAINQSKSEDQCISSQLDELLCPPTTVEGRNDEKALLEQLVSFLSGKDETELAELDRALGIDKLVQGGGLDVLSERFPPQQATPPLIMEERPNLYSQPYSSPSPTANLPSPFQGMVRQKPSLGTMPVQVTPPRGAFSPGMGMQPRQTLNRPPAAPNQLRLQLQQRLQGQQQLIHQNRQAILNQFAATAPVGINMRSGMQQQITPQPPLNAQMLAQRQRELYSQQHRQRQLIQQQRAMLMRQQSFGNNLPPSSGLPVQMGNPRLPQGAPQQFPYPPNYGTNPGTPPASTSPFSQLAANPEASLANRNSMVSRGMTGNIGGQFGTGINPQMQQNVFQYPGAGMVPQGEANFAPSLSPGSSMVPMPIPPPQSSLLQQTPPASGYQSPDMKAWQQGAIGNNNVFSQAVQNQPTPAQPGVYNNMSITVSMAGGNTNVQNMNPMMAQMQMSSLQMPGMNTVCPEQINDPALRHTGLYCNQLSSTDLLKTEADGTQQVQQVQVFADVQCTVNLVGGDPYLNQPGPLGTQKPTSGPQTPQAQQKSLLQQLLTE

[6] = target: Delta-type opioid receptor (Homo sapiens, UniProt P41143); assay: SAR Analysis of Agonists of the DOR Receptor using an Image-Based Assay - Set 3. [Related pubchem assays (depositor defined):AID1777, AID1786]; type: functional
Chain of Delta-type opioid receptor (P41143 whole entry): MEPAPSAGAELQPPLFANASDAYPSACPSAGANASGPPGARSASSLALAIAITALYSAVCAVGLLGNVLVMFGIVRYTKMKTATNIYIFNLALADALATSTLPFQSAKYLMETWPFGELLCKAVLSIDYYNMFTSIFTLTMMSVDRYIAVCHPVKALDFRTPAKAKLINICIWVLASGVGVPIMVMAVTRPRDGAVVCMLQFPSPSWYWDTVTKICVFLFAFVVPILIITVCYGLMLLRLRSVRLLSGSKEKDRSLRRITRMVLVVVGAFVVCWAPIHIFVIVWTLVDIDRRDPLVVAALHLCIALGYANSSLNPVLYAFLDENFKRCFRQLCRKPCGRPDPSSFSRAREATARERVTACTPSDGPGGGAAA

[7] = target: Mu-type opioid receptor (Homo sapiens, UniProt P35372); assay: SAR Analysis of Agonists of the MOR Receptor using an Image-Based Assay - Set 3. [Related pubchem assays (depositor defined):AID1777, AID1785, AID1786, AID1966, AID2133, AID2136, AID2284, AID2285, AID2352]; type: functional
Chain of Mu-type opioid receptor (P35372 whole entry): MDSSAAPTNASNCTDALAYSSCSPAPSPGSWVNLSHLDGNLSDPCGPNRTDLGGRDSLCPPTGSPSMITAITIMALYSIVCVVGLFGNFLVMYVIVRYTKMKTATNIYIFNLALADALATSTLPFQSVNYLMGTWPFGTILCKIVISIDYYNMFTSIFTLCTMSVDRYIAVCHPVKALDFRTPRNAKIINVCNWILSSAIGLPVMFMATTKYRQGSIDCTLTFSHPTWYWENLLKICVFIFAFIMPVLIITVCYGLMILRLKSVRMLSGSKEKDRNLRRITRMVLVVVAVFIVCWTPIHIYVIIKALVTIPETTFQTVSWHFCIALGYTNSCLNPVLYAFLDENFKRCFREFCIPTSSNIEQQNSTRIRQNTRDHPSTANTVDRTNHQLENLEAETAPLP

[8] = target: T2, Kappa-type opioid receptor (Homo sapiens, UniProt P41145); assay: kappa opioid receptor activation by imaging – image-based, set 3, SAR follow-up (AID 488833); type: functional
T2 sequence (P41145 whole entry): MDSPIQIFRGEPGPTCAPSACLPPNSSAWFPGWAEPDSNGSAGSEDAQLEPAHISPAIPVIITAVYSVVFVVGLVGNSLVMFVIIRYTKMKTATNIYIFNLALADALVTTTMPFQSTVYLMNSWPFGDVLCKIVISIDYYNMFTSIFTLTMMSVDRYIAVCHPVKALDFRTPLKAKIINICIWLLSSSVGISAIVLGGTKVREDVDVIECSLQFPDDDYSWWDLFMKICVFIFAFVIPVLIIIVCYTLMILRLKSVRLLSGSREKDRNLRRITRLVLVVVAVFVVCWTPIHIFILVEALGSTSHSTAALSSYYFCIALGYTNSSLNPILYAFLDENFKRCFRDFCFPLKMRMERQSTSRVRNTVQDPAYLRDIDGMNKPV

[9] = target: T2, Kappa-type opioid receptor; assay: SAR analysis of small molecule agonists of the kappa opioid receptor via a luminescent beta-arrestin assay - Set 3. [Related pubchem assays (depositor defined):AID1777, AID1785, AID1786, AID1966, AID2133, AID2136, AID2284, AID2500]; type: functional
[10] = tested on: BJ; assay: BJ-TERT-LT-ST fibroblast viability loss – cell-based, RAS-independent, luminescence, dose response (AID 1935); type: functional; conditions: Homo sapiens;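 further: BJ fibroblasts immortalized with TERT plus LT and ST oncogenes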
[11] = toxicity toward cultured mammalian cells – cell-based, plate reader, cherry-pick samples, cytotoxicity control, dose response (AID 504397); type: functional
[12] = target: CAAX prenyl protease 2 (Saccharomyces cerevisiae S288c, UniProt Q03530); type: biochemical
Chain of CAAX prenyl protease 2 (Q03530 whole entry): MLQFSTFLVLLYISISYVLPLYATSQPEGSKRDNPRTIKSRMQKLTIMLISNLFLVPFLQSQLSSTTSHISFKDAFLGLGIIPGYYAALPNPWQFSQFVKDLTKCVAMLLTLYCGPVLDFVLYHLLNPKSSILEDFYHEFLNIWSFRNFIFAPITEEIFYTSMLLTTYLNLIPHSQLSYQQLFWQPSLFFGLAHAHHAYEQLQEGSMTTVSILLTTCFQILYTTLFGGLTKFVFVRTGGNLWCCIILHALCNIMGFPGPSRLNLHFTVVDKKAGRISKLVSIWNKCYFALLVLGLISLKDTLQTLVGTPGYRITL

[13] = tested on: BJ; assay: BJ-TERT fibroblast viability loss – cell-based, RAS-independent, luminescence, dose response (AID 1933); type: functional; conditions: Homo sapiens
[14] = tested on: BJ; assay: cells; type: functional, cell-based; conditions: Homo sapiens
[15] = DRD fibroblast viability loss – cell-based, non-viral oncogenic, luminescence, dose response (AID 1934); type: functional; conditions: Homo sapiens

Chain of Cytochrome P450 2C9 (P11712 whole entry): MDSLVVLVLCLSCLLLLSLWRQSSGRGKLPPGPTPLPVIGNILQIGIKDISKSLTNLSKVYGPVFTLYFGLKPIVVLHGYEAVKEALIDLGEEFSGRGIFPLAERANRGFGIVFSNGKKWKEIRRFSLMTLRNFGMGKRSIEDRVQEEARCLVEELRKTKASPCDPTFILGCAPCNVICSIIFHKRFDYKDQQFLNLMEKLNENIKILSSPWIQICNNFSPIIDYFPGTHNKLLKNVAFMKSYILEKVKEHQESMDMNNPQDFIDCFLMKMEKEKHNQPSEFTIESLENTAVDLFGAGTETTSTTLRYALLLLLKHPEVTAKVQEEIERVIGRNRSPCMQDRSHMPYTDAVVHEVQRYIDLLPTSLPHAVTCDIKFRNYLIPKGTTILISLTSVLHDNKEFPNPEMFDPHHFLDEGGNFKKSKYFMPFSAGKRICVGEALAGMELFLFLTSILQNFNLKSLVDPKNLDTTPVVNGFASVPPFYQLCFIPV

## Cn1c(=O)cc(SCC(=O)NCCN2CCN(c3ccccc3F)CC2)c2cc(Cl)ccc21
[1]
  AC50: inconclusive
[2]
  EC50: > 79.4 µM (not active)
[3]
  AC50: 39.8 µM (inconclusive)
[4]
  EC50: 7.9 µM (active)
[5]
  EC50: 33.2 µM (inactive)

## FC(F)(F)c1cc(CSc2nnc(-c3ccccn3)n2Cc2ccco2)ccc1Cl
[6]
  EC50: > 64 µM (inactive)
[7]
  EC50: > 32 µM (inactive)
[8]
  EC50: 0.456 µM (active)
[9]
  EC50: 0.504 µM (active)

## Cc1cccc(OCCCN2C(=O)C(=O)c3cc(C)ccc32)c1
[10]
  EC50: 11.1 µM (inconclusive)
[11]
  AC50: 42.4 µM (active)
[12]
  AC50: 2.77 µM (active)
[13]
  EC50: 5.08 µM (active)
[14]
  EC50: > 150 µM (not active)
[15]
  EC50: 25.9 µM (active)
